Measurements reported in patent publication US20250177406A1, “PHARMACEUTICAL COMPOSITION FOR TREATING TUMORS” (Eisai R&D Management Co., Ltd., priority 2022, published 2025).
Read-outs that look alike come from different tables or passages of the source.

Legend:
[1] = tested on: xenograft model with the KRAS G12C mutation-positive human non-small cell lung cancer cell line NCI-H358; assay: Antitumor effect of combined administration with adagrasib in xenograft model (tumor volume); type: in vivo, nude mice; parameters: unit not given beside the values; details: adagrasib 10 mg/kg, once per day, oral
Procedure: Experimental conditions for drug efficacy test using mice with different cell lines (suspension media, cell counts for transplantation, lineages of mice, administered drugs, days of initiation of administration, test periods) were shown in Table 5. Each cell line was prepared with suspension medium to reach an intended cell count for transplantation, and the resulting suspension was subcutaneously transplanted into nude mice (6-week-old, female) at the body flank.
The long diameter and short diameter of tumors generated in each mouse were measured with a Digimatic Caliper (manufactured by Mitutoyo Corp.) twice a week from day 1 as the day of initiation of administration to the final day of the test.
The tumor volume was calculated by the following formula.
Numbers in Table 6 each indicate mean±standard error (SEM) of tumor volume. In the test carried out, six mice were used per group.

[2] = tested on: xenograft model with the KRAS G12C mutation-positive human non-small cell lung cancer cell line NCI-H358; details: sotorasib 100 mg/kg, once per day, oral
Procedure: Matrigel/HBSS (50:50) was added to a KRAS G12C mutation-positive human non-small cell lung cancer cell line, NCI-358 cells, to prepare a cell suspension of 8×10^6 cells. The cell suspension was subcutaneously transplanted into nude mice (CAnN.Cg-Foxn1 nu/CrlCrlj, from Charles River Laboratories Japan, Inc.) at the body flank. Six mice were used per group. The date of transplantation was defined as day 1. […] No drug was administered to the control group.
The date of the initiation of administration was defined as day 1. On days 4, 8, 11, and 15, the long diameter and short diameter of tumors generated in each mouse were measured with a Digimatic Caliper (manufactured by Mitutoyo Corp.).

[3] = tested on: xenograft model with the KRAS G12C mutation-positive human colorectal cancer cell line SW837; details: sotorasib 100 mg/kg, once per day, oral
[4] = tested on: xenograft model with the KRAS G12C mutation-positive human bladder cancer cell line UM-UC-3; details: UM-UC-3 xenograft, E7386 25 mg/kg, sotorasib 100 mg/kg, once per day, oral
[5] = tested on: KRAS G12D mutation-positive human bile duct cancer cell line SNU-869; assay: Cell growth inhibitory activity of combined treatment, ultra-low adsorption plate, CellTiter-Glo 3D, 5 days; type: cell-based; details: 120 h, SNU-869, MRTX1133 alone
Procedure: (§1) With different KRAS mutation-positive cell lines, combined treatment of the compound represented by formula (I) and a KRAS inhibitor was evaluated on growth inhibitory activity. […] Cells were seeded in 96-well flat-bottomed ultra-low adsorption plate (manufactured by Corning Incorporated) at 5000 cells/well, and cultured at 5% CO2 and 37° C. for 1 day. […] The drug solutions were prepared by diluting their DMSO stocks with medium to specific concentrations, and added in such a manner that the volume of the culture medium reached 100 μL/well after addition of the drugs. After the culture for 5 days, 30 μL of CellTiter-Glo 3D Reagent (manufactured by Promega Corporation) was added to each well and reacted under shading for 30 minutes, and 50-μL portions were then transferred into a separate white 96-well plate (manufactured by Greiner Bio-One International GmbH), and the emission intensity of luciferase was measured with a plate reader (manufactured by PerkinElmer, Inc.). The measurement values were defined as the relative cell counts.

[6] = tested on: KRAS G12D mutation-positive human endometrial cancer cell line HEC-1-B; assay: as above; type: cell-based; details: 120 h, MRTX1133 alone
Procedure: as §1

## C=CCN1CC(=O)N2[C@@H](Cc3ccc(O)cc3F)C(=O)N(Cc3cccc(N4CC(N5CCN(CC)CC5)C4)n3)C[C@@H]2N1C(=O)NCc1ccccc1 [E7386, (6S,9aS)-N-benzyl-8-((6-(3-(4-ethylpiperazin-1-yl)azetidin-1-yl)pyridin-2-yl)methyl)-6-((2-fluoro-4-hydroxyphenyl)methyl)-4,7-dioxo-2-(prop-2-en-1-yl)-octahydro-1H-pyrazino[2,1-c][1,2,4]triazine-1-carboxamide]
[1]; Day 4, E7386 25 mg/kg
  tumor volume, mean ± SEM: 251.2 ± 8.1
[1]; Day 8, E7386 25 mg/kg
  tumor volume, mean ± SEM: 327.4 ± 24.9
[1]; Day 11, E7386 25 mg/kg
  tumor volume, mean ± SEM: 445.0 ± 26.3
[1]; Day 15, E7386 25 mg/kg
  tumor volume, mean ± SEM: 579.1 ± 45.1
[1]; Day 18, E7386 25 mg/kg
  tumor volume, mean ± SEM: 729.2 ± 56.7
[2]; Day 11, E7386 25 mg/kg
  tumor volume, mean ± SEM: 519.9 ± 34.1
[2]; Day 15, E7386 25 mg/kg
  tumor volume, mean ± SEM: 714.4 ± 55.5
[3]; Day 5, E7386 25 mg/kg
  tumor volume, mean ± SEM: 221.5 ± 9.5
[3]; Day 12, E7386 25 mg/kg
  tumor volume, mean ± SEM: 340.9 ± 17.5
[4]; Day 5
  tumor volume, mean ± SEM: 337.4 ± 20.9
[4]; Day 12
  tumor volume, mean ± SEM: 1487.0 ± 59.7
[4]; Day 15
  tumor volume, mean ± SEM: 2526.8 ± 123.1

## C#Cc1c(F)ccc2cc(O)cc(-c3ncc4c(N5CC6CCC(C5)N6)nc(OC[C@@]56CCCN5C[C@@H](F)C6)nc4c3F)c12 [MRTX1133, 4-(4-((1R,5S)-3,8-diazabicyclo[3.2.1]octan-3-yl)-8-fluoro-2-(((2R,7aS)-2-fluorohexahydro-1H-pyrrolidin-7a-yl)methoxy)pyrodo[4,3-d]pyrimidin-7-yl)-5-et hynyl-6-fluoronaphthalen-2-ol]
[5]
  GI50: 1.79 nM
[6]
  GI50: 5.37 nM
